From patent US10195156B2, “Compounds and compositions for intracellular delivery of agents” (ModernaTX, Inc., priority 2015, dated 2019)

What was measured:
[1] = pKa of nanoparticle compositions; format: physicochemical
[2] = test system: modified luciferase expression; experiment: Expression of Luc in different organs (liver, lung, spleen, femur) 6 hours after intravenous administration; format: in vivo; settings: i.v., 0.5 mpk
Protocol: The efficacy of the nanoparticle compositions presented in Tables 1, 1a, 17-1, 19-1, 20-1 and 21-1 was further evaluated by measuring the expression of modified luciferase in the liver, lung, spleen, and femur upon administration of a given composition. Formulations were administered intravenously to mice (n=3) at a dosage of 0.5 mpk and bioluminescence measured after 6 hours. The standard MC3 formulation and a PBS control were also tested.

[3] = test system: luciferase (Luc) mRNA expression; experiment: Expression of Luc induced by sample formulations, whole-body bioluminescence after intravenous administration; format: in vivo; settings: mice, i.v., 0.5 mg/kg
Outline: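 Read-out is whole-body bioluminescence at 3, 6 and 24 h after a single intravenous dose of 0.5 mg/kg Luc mRNA in nanoparticle formulations. Groups of n=6 mice; PBS and standard MC3 formulation as references.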

[4] = Particle size and polydispersity index of nanoparticle compositions (Zetasizer Nano ZS); format: physicochemical
Outline: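 Values are size and PDI readings from a Zetasizer Nano ZS. Measurements are taken in 1×PBS; zeta potential, by contrast, uses 15 mM PBS.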

IL-6 = experiment: Cytokine production induced by sample formulations: IL-6; format: in vivo; settings: mice, i.v., 0.5 mpk, 6 hours; for IL-6: in pg/mL (unit assumed)
Outline: (§1)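 Cytokine levels were quantified at 6 hours in mice given the nanoparticle compositions i.v. at 0.5 mpk. MC3 standard formulation and PBS served as comparators.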

IP-10 = experiment: Cytokine production induced by sample formulations: IP-10; format: in vivo; settings: mice, i.v., 0.5 mpk, 6 hours; for IP-10: in pg/mL (unit assumed)
Outline: as §1

[5] = Encapsulation efficiency of RNA (QUANT-IT RIBOGREEN RNA assay); format: physicochemical
Outline: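 RiboGreen fluorescence (ex ~480, em ~520 nm) measured after 15 min at 37 °C on samples at ~5 μg/mL in TE, pH 7.5, ± 2% Triton X-100 solution. After blank subtraction, free RNA is given as intact-sample signal divided by disrupted-sample signal.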

[6] = Table 1, rows without footnote mark
[7] = Table 1, rows without footnote mark (lipid:DOPE:cholesterol:PEG-DMG 40:20:38.5:1.5, Luc mRNA; MC3 standard formulation)
[8] = Table 20-1, rows without footnote mark

| Compound | pKa [1, 6] | Total Flux Femur ([2]; Table 3, mice) | Total Flux Liver ([2]; Table 3, mice) | Total Flux Lung ([2]; Table 3, mice) | Total Flux Spleen ([2]; Table 3, mice, spleen) | Total Flux 3 hours ([3]; Table 2) | Total Flux 6 hours ([3]; Table 2) | Total Flux 24 hours ([3]; Table 2) | PDI [4, 6] | Size (nm) [4, 7] [nm] | IL-6 (IL-6; Table 4) | IP-10 (IP-10; Table 4) | EE (%) [5, 6] [%] | pKa [1, 8] | Total Flux Liver ([2]; Table 20-3, mice) | Total Flux Lung ([2]; Table 20-3, mice) | Total Flux Spleen ([2]; Table 20-3, mice, spleen) | Total Flux 3 hours ([3]; Table 20-2) | Total Flux 6 hours ([3]; Table 20-2) | Total Flux 24 hours ([3]; Table 20-2) | further results |
| --- | --- | --- | --- | --- | --- | --- | --- | --- | --- | --- | --- | --- | --- | --- | --- | --- | --- | --- | --- | --- | --- |
| CCCCCCCCCCCCCCN(CCCCCCCCCCCCCC)CCN(CCCCCCCCCCCCCC)CCN1CCN(CCN(CCCCCCCCC)CCCCCCCCC)CC1 [Compound 30, N^1-(2-(4-(2-(Dinonylamino)ethyl)piperazin-1-yl)ethyl)-N^1,N^2,N^2-tritetradecylethane-1,2-diamine] | 6.09 | 2.22E+06 | 2.42E+09 | 1.61E+07 | 7.18E+06 | 2.87E+10 | 1.59E+10 | 1.95E+09 | 0.110 | 95.0 | 300 | 4235 | 74.3 | – | – | – | – | – | – | – | total flux after 3 hours, rank within the named table (in words) [3]: highest flux after 3 hours |
| CCCCC/C=C\C/C=C\CCCCCCCCN(CCO)CCCCCCCCCCCCCC [Compound 17-5, 2-(((9Z,12Z)—Octadeca-9,12-dien-1-yl)(tetradecyl)amino)ethan-1-ol] | – | – | – | – | – | – | – | – | – | – | – | – | – | – | – | – | – | – | – | – | pKa ([1]; Table 17-1): 6.92; Total Flux Liver ([2]; Table 17-3, mice): 1.17E+08; Total Flux Lung ([2]; Table 17-3, mice): 8.13E+05; Total Flux Spleen ([2]; Table 17-3, mice, spleen): 2.13E+06; total flux in the liver, rank within the named table (in words) ([2]; mice): somewhat comparable to those including MC3; total flux in the spleen, rank within the named table (in words) ([2]; mice, spleen): highest; Total Flux 3 hours ([3]; Table 17-2): 6.64E+08; Total Flux 6 hours ([3]; Table 17-2): 8.54E+08; Total Flux 24 hours ([3]; Table 17-2): 5.97E+07; PDI ([4]; Table 17-1): 0.137; Size (nm) ([4]; Table 17-1): 88.4 nm; IL-6 (IL-6; Table 17-4): 49.2; IP-10 (IP-10; Table 17-4): 300; EE (%) ([5]; Table 17-1): 94.2% |
| CCCCCCCCCCCCCCN(CCO)CCCCCCCCCCCCCC [Compound 17-7, 2-(Ditetradecylamino)ethan-1-ol] | – | – | – | – | – | – | – | – | – | – | – | – | – | – | – | – | – | – | – | – | pKa ([1]; Table 17-1): 5.68; Total Flux Liver ([2]; Table 17-3, mice): 7.44E+04; Total Flux Lung ([2]; Table 17-3, mice): 1.35E+04; Total Flux Spleen ([2]; Table 17-3, mice, spleen): 3.46E+04; Total Flux 3 hours ([3]; Table 17-2): 4.68E+05; Total Flux 6 hours ([3]; Table 17-2): 6.82E+05; Total Flux 24 hours ([3]; Table 17-2): 5.46E+05; PDI ([4]; Table 17-1): 0.110; Size (nm) ([4]; Table 17-1): 68.5 nm; particle size, rank within the named table (in words) ([4]; comparison amongst compositions): smallest particles; IL-6 (IL-6; Table 17-4): 49.9; IP-10 (IP-10; Table 17-4): 100; EE (%) ([5]; Table 17-1): 95.6% |
| CCCCCCCCCCCCCCN(CCCCCCCCCCCCCC)CCN(CCCCCCCCCCCCCC)CCN1CCN(CCN(CCCCCCCCCCCCCC)CCCCCCCCCCCCCC)CC1 [Compound 32, N^1-(2-(4-(2-(Ditetradecylamino)ethyl)piperazin-1-yl)ethyl)-N^1,N^2,N^2-tritetradecylethane-1,2-diamine] | 6.28 | 1.02E+05 | 8.36E+07 | 6.75E+05 | 9.38E+05 | 6.85E+08 | 5.88E+08 | 4.37E+07 | 0.160 | 79.3 | 174 | 727 | 83.6 | – | – | – | – | – | – | – | – |
| CCCCC/C=C\C/C=C\CCCCCCCCN(CCCCCCCCCCCC)CCN1CCN(CCN(CCCCCCCCCCCC)CCN(CCCCCCCCCCCC)CCCCCCCCCCCC)CC1 [Compound 27, N^1,N^1,N^2-Tridodecyl-N^2-(2-(4-(2-(dodecyl((9Z,12Z)-octadeca-9,12-dien-1-yl)amino)ethyl)piperazin-1-yl)ethyl)ethane-1,2-diamine] | 6.14 | – | 7.84E+08 | 3.56E+06 | 3.34E+06 | 4.56E+09 | 4.70E+09 | 1.36E+08 | 0.211 | 86.4 | 42 | 2564 | 97.9 | – | – | – | – | – | – | – | – |
| CCCCCCCCCCCCCCN(CCCCCCCCCCCCCC)CCN(CCCCCCCCCCCCCC)CCN1CCN(CCN(CCCCCCCCCCCC)CCCCCC(=O)OCCCCC)CC1 [Compound 13, Pentyl 6-((2-(4-(2-((2-(ditetradecylamino)ethyl)(tetradecyl)amino)ethyl)piperazin-1-yl)ethyl)(dodecyl)amino)hexanoate] | 6.30 | 1.99E+06 | 6.10E+08 | 2.89E+06 | 3.63E+07 | 3.59E+09 | 3.80E+09 | 3.11E+08 | 0.080 | 97.7 | 301 | 7266 | 64.2 | – | – | – | – | – | – | – | IL-6 induction, rank within the named table (in words) (IL-6): highest expression; IP-10 induction, rank or comparison with IL-6 (in words) (IP-10): highest expression |
| CCCCCCCCCCCCN(CCCCCCCCCCCC)CCN1CCN(C)CC1 [Compound 19-4, N-Dodecyl-N-(2-(4-methylpiperazin-1-yl)ethyl)dodecan-1-amine] | – | – | – | – | – | – | – | – | – | – | – | – | – | – | – | – | – | – | – | – | pKa ([1]; Table 19-1): 7.09; Total Flux Liver ([2]; Table 19-3, mice): 1.46E+05; Total Flux Lung ([2]; Table 19-3, mice): 4.49E+04; Total Flux Spleen ([2]; Table 19-3, mice, spleen): 3.69E+04; Total Flux 3 hours ([3]; Table 19-2): 6.61E+05; Total Flux 6 hours ([3]; Table 19-2): 4.75E+05; Total Flux 24 hours ([3]; Table 19-2): 3.44E+05; PDI ([4]; Table 19-1): 0.071; Size (nm) ([4]; Table 19-1): 111.4 nm; IL-6 (IL-6; Table 19-4): 129.2; IP-10 (IP-10; Table 19-4): 430.9; IP-10 induction, rank or comparison with IL-6 (in words) (IP-10): highest IP-10 expression; EE (%) ([5]; Table 19-1): 95.2% |
| CCCCCCCCCCCCN(CCO)CCN(CCCCCCCCCCCC)CCCCCC(=O)OCCCCCCC [Compound 20-7, Heptyl 6-(dodecyl(2-(dodecyl(2-hydroxyethyl)amino)ethyl)amino)hexanoate] | – | – | – | – | – | – | – | – | – | – | – | – | – | 6.66 | 1.00E+09 | 1.38E+07 | 4.58E+07 | 1.22E+10 | 8.94E+09 | 2.65E+08 | total flux in the liver, rank within the named table (in words) ([2]; mice): highest; total flux after 3 hours, rank within the named table (in words) [3]: highest after 3 hours; PDI [4, 8]: 0.170; Size (nm) [4, 8]: 73.6 nm; IL-6 (IL-6; Table 20-4, formula (20-I)): 24.5; IP-10 (IP-10; Table 20-4, formula (20-I)): 696.3; EE (%) [5, 8]: 92.4% |
| CCCCCCCCCCCCCCN(CCCCCCCCCCCCCC)CCN(CCCO)CCCCCCCCCCCC [Compound 20-11, 3-((2-(Ditetradecylamino)ethyl)(dodecyl)amino)propan-1-ol] | – | – | – | – | – | – | – | – | – | – | – | – | – | 5.38 | 3.60E+08 | 5.86E+05 | 9.24E+06 | 1.44E+09 | 8.83E+08 | 2.40E+07 | PDI [4, 8]: 0.118; Size (nm) [4, 8]: 96.1 nm; IL-6 (IL-6; Table 20-4, formula (20-I)): 46.9; IP-10 (IP-10; Table 20-4, formula (20-I)): 1700.5; EE (%) [5, 8]: 97.5% |
| CCCCCCCCCCCCN(CCCCCCCCCCCC)CCN(CCO)CCCCCC(=O)OCCCCC [Compound 20-3, Pentyl 6-((2-(didodecylamino)ethyl)(2-hydroxyethyl)amino)hexanoate] | – | – | – | – | – | – | – | – | – | – | – | – | – | 6.82 | 4.33E+08 | 6.08E+05 | 6.35E+06 | 5.35E+09 | 3.00E+09 | 6.49E+07 | Total Flux Femur ([2]; Table 20-3, mice): 1.73E+06; PDI [4, 8]: 0.110; Size (nm) [4, 8]: 76.4 nm; IL-6 (IL-6; Table 20-4, formula (20-I)): 105.8; IP-10 (IP-10; Table 20-4, formula (20-I)): 671.5; EE (%) [5, 8]: 95.8% |
